Drawing on patent publication US9604940B2 (Chroma Therapeutics Ltd., priority 2012, dated 2017), this text covers IC50 for 22 compounds.

Structures can show the parent of a compound that is named as a salt.

Experiment [1] concerns MCP-1. Briefly: MCSF-stimulation of human whole blood, MCP-1 levels by sandwich ELISA. The following applies: inhibitor 2 hours before MCSF 50 ng/ml, 22 hrs, MCP-1 in cell-free supernatants, read-out: Inhibitor activity versus MCP-1. The experiment is classed as cell-based. The method, then:
Macrophage Colony-Stimulating Factor (MCSF)-Stimulation of Human Whole Blood
Whole blood was taken by venous puncture using heparinised vacutainers (Becton Dickinson) and diluted in an equal volume of RPMI1640 tissue culture media (Sigma). 100 μl was plated in V-bottomed 96 well tissue culture treated plates. 2 hours after the addition of the inhibitor in 100 μl of RPMI1640 media, the blood was stimulated with MCSF (Peprotech: #300-25-10 uG) at a final concentration of 50 ng/ml and incubated at 37° C. in 5% CO2 for 22 hrs. MCP-1 levels were measured from cell-free supernatants by sandwich ELISA developed from MCP-1/CCL2 Duoset (R&D Systems #DY279). Additional reagents required for ELISA were purchased from Sigma, (BSA: A3059, 10×PBS: D1408, Tween20: P5927) R&D Systems, (colour reagent: #DY999 and stop solution: #DY994) and Costar (96-well EIA plates: #2592). Assays were carried out following the manufacturer's instructions with the following modifications: Cell-free supernatants were diluted 30:70 in reagent diluent before assay. All incubations except capture antibody were carried out with shaking at 550 rpm. 3 washes were carried out between steps, and incubation times were blocking 1.5 hr, sample/standard and detection antibody incubations 2 hr, HRP incubation 30 min, colour development 20 min. • IC50 values were allocated to one of five ranges as follows: • Range A: IC50<100 nM • Range B: 100 nM<IC50<300 nM • Range C: 300 nM<1050<1000 nM • Range D: 1000 nM<IC50<5000 nM • Range E: IC50>5000 nM • NT=not tested
For orientation: In an ELISA, binding on a coated surface is turned into a signal by an enzyme label.

For experiment [2], the target named is T1, CSF1R (FMS) (Homo sapiens, UniProt P07333).
T1 construct: purchased Invitrogen (Paisley, UK)
As to the kind of experiment: CSF1R (FMS) kinase activity, Z'-LYTE biochemical assay (Invitrogen). The settings on record: ATP at or close to Km, 60 minute reaction at room temperature, read-out: Inhibitor activity versus CSF-1. The procedure:
CSF1R (FMS) Kinase Activity
The ability of compounds to inhibit CSF1R (FMS) kinase activity was measured in an assay performed by Invitrogen (Paisley, UK). The Z′-LYTE™ biochemical assay employs a fluorescence-based, coupled-enzyme format and is based on the differential sensitivity of phosphorylated and non-phosphorylated peptides to proteolytic cleavage. The peptide substrate is labelled with two fluorophores—one at each end—that make up a FRET pair. In the primary reaction, the kinase transfers the gamma-phosphate of ATP to a single […] residue in a synthetic FRET-peptide. In the secondary reaction, a site-specific protease recognizes and cleaves non-phosphorylated FRET-peptides. Phosphorylation of FRET-peptides suppresses cleavage by the Development Reagent. Cleavage disrupts FRET between the donor (i.e. coumarin) and acceptor (i.e. fluorescein) fluorophores on the FRET-peptide, whereas uncleaved, phosphorylated FRET-peptides maintain FRET. A […] method, which calculates the ratio (the Emission Ratio) of donor emission to acceptor emission after excitation of the donor fluorophore at 400 nm, is used to quantitate reaction progress.
The final 10 μL Kinase Reaction consists of 0.12-12.3 ng CSF1R (FMS), 2 μM Tyr 01 Peptide and ATP in 50 mM HEPES pH 7.5, 0.01% BRIJ-35, 10 mM MgCl2, 1 mM EGTA. The assay is performed at an ATP concentration at, or close to, the Km. After the 60 minute Kinase Reaction incubation at room temperature, 5 μL of a 1:256 dilution of Development Reagent is added. The assay plate is incubated for a further 60 minutes at room temperature and read on a fluorescence plate reader.
Duplicate data points are generated from a ⅓ log dilution series of a stock solution of test compound in DMSO. Nine dilutions steps are made from a top concentration of 10 mM, and a ‘no compound’ blank is included. Data is collected and analysed using XLfit software from IDBS. The dose response curve is curve fitted to model number 205 (sigmoidal dose-response model). From the curve generated, the concentration giving 50% inhibition is determined and reported.

T1 sequence (P07333 20-972): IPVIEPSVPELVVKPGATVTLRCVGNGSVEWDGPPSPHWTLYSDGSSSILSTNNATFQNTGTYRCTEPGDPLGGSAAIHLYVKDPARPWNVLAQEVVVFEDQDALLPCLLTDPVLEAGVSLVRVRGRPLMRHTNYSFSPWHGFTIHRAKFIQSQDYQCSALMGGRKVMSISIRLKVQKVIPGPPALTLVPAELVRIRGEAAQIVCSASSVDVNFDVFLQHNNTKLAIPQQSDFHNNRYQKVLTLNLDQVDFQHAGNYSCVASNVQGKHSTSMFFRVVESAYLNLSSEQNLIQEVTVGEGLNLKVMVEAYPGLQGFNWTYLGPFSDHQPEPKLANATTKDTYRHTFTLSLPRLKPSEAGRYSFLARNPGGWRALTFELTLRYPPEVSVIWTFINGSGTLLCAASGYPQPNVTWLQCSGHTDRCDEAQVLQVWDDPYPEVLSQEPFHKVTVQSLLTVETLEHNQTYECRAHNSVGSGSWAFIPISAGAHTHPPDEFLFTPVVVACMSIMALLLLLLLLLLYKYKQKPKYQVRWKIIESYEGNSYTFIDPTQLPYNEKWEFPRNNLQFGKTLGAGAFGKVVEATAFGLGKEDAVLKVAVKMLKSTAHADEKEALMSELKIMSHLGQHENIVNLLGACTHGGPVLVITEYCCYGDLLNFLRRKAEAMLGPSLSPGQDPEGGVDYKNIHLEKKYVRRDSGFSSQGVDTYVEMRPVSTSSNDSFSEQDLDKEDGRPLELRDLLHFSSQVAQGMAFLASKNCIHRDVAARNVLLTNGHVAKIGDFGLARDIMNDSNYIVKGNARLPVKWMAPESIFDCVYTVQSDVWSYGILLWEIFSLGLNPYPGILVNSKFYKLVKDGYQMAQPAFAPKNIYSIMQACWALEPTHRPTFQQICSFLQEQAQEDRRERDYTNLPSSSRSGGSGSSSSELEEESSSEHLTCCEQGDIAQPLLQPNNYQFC

For the compound `Nc1ncc(-c2ccc(C(=O)NC3CCN[C@@H](C(=O)OC4CCCC4)C3)cc2)nc1NCc1c(Cl)cccc1Cl` (stereo partly drawn) [Example 1, Cyclopentyl (2R)-4-[(4-{5-amino-6-[(2,6-dichlorobenzyl)amino]pyrazin-2-yl}benzoyl)amino]piperidine-2-carboxylate], the IC50 in experiment [1] was 0.3 to 1 µM; in experiment [2], less than 0.1 µM.

Turning to `CN(C(=O)c1ccc(-c2cnc(N)c(NCc3c(Cl)cccc3Cl)n2)cc1)C1CCN[C@@H](C(=O)OC2CCCC2)C1` (stereo partly shown) [Example 2], the IC50 lay within 0.3 to 1 µM in experiment [1] and 0.1 to 0.3 µM in experiment [2].

For `Nc1ncc(-c2ccc(C(=O)N3CCNC(C(=O)OC4CCCC4)C3)cc2)nc1NCc1c(Cl)cccc1Cl` (stereo not shown) [Example 3, Cyclopentyl 4-(4-{5-amino-6-[(2,6-dichlorobenzyl)amino]pyrazin-2-yl}benzoyl)piperazine-2-carboxylate], the IC50 was 0.3 to 1 µM in experiment [1] and 0.1 to 0.3 µM in experiment [2].

`CC(C)(C)OC(=O)[C@H]1CC(NC(=O)c2ccc(-c3cnc(N)c(NCc4c(Cl)cccc4Cl)n3)cc2)CCN1` (stereo partly drawn) [Example 4, tert-Butyl (2R)-4-[(4-{5-amino-6-[(2,6-dichlorobenzyl)amino]pyrazin-2-yl}benzoyl)amino]piperidine-2-carboxylate]: the IC50 in experiment [2] is 0.1 to 0.3 µM.

`CN(C(=O)c1ccc(-c2cnc(N)c(NCc3c(Cl)cccc3Cl)n2)cc1)C1CCN[C@@H](C(=O)OC(C)(C)C)C1` (stereo partly drawn) [Example 5, tert-Butyl (2R)-4-[(4-{5-amino-6-[(2,6-dichlorobenzyl)amino]pyrazin-2-yl}benzoyl)(methyl)amino]piperidine-2-carboxylate]: the IC50 in experiment [1] was 1 to 5 µM; in experiment [2] it was less than 0.1 µM.

For the compound `CC(C)(C)OC(=O)C1CN(C(=O)c2ccc(-c3cnc(N)c(NCc4c(Cl)cccc4Cl)n3)cc2)CCN1` (stereo not shown) [Example 6, tert-Butyl 4-(4-{5-amino-6-[(2,6-dichlorobenzyl)amino]pyrazin-2-yl}benzoyl)piperazine-2-carboxylate], the IC50 in experiment [1] lay in the range of 0.3 to 1 µM; in experiment [2] it was 0.1 to 0.3 µM.

As to `Nc1ncc(-c2ccc(CNC3CCN[C@@H](C(=O)OC4CCCC4)C3)cc2)nc1NCc1c(Cl)cccc1Cl` (stereo partly drawn) [Example 7, Cyclopentyl (2R)-4-[(4-{5-amino-6-[(2,6-dichlorobenzyl)amino]pyrazin-2-yl}benzyl)amino]piperidine-2-carboxylate], the IC50 is 0.1 to 0.3 µM in experiment [1] and less than 0.1 µM in experiment [2].

For `Nc1ncc(-c2ccc(CNC3CCN[C@H](C(=O)OC4CCCC4)C3)cc2)nc1NCc1c(Cl)cccc1Cl` (stereo partly drawn) [Example 8, Cyclopentyl (2S)-4-[(4-{5-amino-6-[(2,6-dichlorobenzyl)amino]pyrazin-2-yl}benzyl)amino]piperidine-2-carboxylate], the IC50 in experiment [1] is 0.1 to 0.3 µM; in experiment [2] it was less than 0.1 µM.

Turning to `Nc1ncc(-c2ccc(CN3CCNC(C(=O)OC4CCCC4)C3)cc2)nc1NCc1c(Cl)cccc1Cl` (stereo not shown) [Example 9, Cyclopentyl 4-(4-{5-amino-6-[(2,6-dichlorobenzyl)amino]pyrazin-2-yl}benzyl)piperazine-2-carboxylate], the IC50 in experiment [1] is less than 0.1 µM; in experiment [2], 0.3 to 1 µM.

On to `Nc1ncc(-c2ccc(CN3CCN[C@H](C(=O)OC4CCCC4)C3)cc2)nc1NCc1c(Cl)cccc1Cl` [Example 10, Cyclopentyl (2S)-4-(4-{5-amino-6-[(2,6-dichlorobenzyl)amino]pyrazin-2-yl}benzyl)piperazine-2-carboxylate], for which the IC50 in experiment [1] was less than 0.1 µM; in experiment [2] it was 1 to 5 µM.

Consider `CC(C)C[C@H](NCc1ccc(-c2cnc(N)c(NCc3c(Cl)cccc3Cl)n2)cc1)C(=O)OC1CCCC1` [Example 12, Cyclopentyl N-(4-{5-amino-6-[(2,6-dichlorobenzyl)amino]pyrazin-2-yl}benzyl)-L-leucinate], for which the IC50 in experiment [2] is greater than 5 µM.

As to `CC(C)C[C@H](NCc1ccc(-c2cnc(N)c(NCc3c(Cl)cccc3Cl)n2)cc1)C(=O)OC(C)(C)C` [Example 13, tert-Butyl N-(4-{5-amino-6-[(2,6-dichlorobenzyl)amino]pyrazin-2-yl}benzyl)-L-leucinate], the IC50 in experiment [2] was in the range of 1 to 5 µM.

As for `CC(C)C[C@H](NCc1ccc(-c2cnc(N)c(NCc3c(F)cccc3F)n2)cc1)C(=O)OC1CCCC1` [Example 15, Cyclopentyl N-(4-{5-amino-6-[(2,6-difluorobenzyl)amino]pyrazin-2-yl}benzyl)-L-leucinate], the IC50 in experiment [2] was greater than 5 µM.

As for `CC(C)C[C@H](NCc1ccc(-c2cnc(N)c(NCc3c(F)cccc3F)n2)cc1)C(=O)OC(C)(C)C` [Example 16, tert-Butyl N-(4-{5-amino-6-[(2,6-difluorobenzyl)amino]pyrazin-2-yl}benzyl)-L-leucinate], in experiment [2], the IC50 was in the range of 1 to 5 µM.

`Nc1ncc(-c2ccc(CNC3CCN[C@@H](C(=O)OC4CCCC4)C3)cc2)nc1NCc1c(F)cccc1Cl` (stereo partly drawn) [Example 17, Cyclopentyl (2R)-4-[(4-{5-amino-6-[(2-chloro-6-fluorobenzyl)amino]pyrazin-2-yl}benzyl)amino]piperidine-2-carboxylate]: in experiment [2], the IC50 is less than 0.1 µM.

Consider `CC(C)(C)OC(=O)[C@H]1CC(NCc2ccc(-c3cnc(N)c(NCc4c(F)cccc4F)n3)cc2)CCN1` (stereo partly drawn) [Example 24, tert-Butyl (2R)-4-[(4-{5-amino-6-[(2,6-difluorobenzyl)amino]pyrazin-2-yl}benzyl)amino]piperidine-2-carboxylate], for which, in experiment [2], the IC50 lay within 0.3 to 1 µM.

Regarding `CC(C)CN(Cc1ccc(-c2cnc(N)c(NCc3c(Cl)cccc3Cl)n2)cc1)C1CCN[C@@H](C(=O)OC2CCCC2)C1` (stereo partly drawn) [Example 29, Cyclopentyl (2R)-4-[(4-{5-amino-6-[(2,6-dichlorobenzyl)amino]pyrazin-2-yl}benzyl)(2-methylpropyl)amino]piperidine-2-carboxylate], in experiment [1], the IC50 fell in the range of 1 to 5 µM.

Consider `CC(C)(C)OC(=O)C(C)(C)NCc1cccc(-c2cnc(N)c(NCc3c(Cl)cccc3Cl)n2)c1` [Example 41, tert-Butyl N-(3-{5-amino-6-[(2,6-dichlorobenzyl)amino]pyrazin-2-yl}benzyl)-2-methylalaninate formate salt], for which, in experiment [2], the IC50 fell in the range of 1 to 5 µM.

Take `Nc1ncc(-c2cccc(CCN3CCNC(C(=O)OC4CCCC4)C3)c2)nc1NCc1c(Cl)cccc1Cl` (stereo not shown) [Example 52, Cyclopentyl 4-[2-(3-{5-amino-6-[(2,6-dichlorobenzyl)amino]pyrazin-2-yl}phenyl)ethyl]piperazine-2-carboxylate]: in experiment [1], the IC50 is 0.1 to 0.3 µM.

With `Nc1ncc(-c2cnn(CC(=O)NC3CCN[C@@H](C(=O)OC4CCCC4)C3)c2)nc1NCc1c(Cl)cccc1Cl` (stereo partly drawn) [Example 53, Cyclopentyl (2R)-4-{[(4-{5-amino-6-[(2,6-dichlorobenzyl)amino]pyrazin-2-yl}-1H-pyrazol-1-yl)acetyl]amino}piperidine-2-carboxylate], the IC50 in experiment [2] is 0.1 to 0.3 µM.

`CC(C)(C)OC(=O)[C@H]1CC(NC(=O)Cn2cc(-c3cnc(N)c(NCc4c(Cl)cccc4Cl)n3)cn2)CCN1` (stereo partly drawn) [Example 54, tert-Butyl (2R)-4-{[(4-{5-amino-6-[(2,6-dichlorobenzyl)amino]pyrazin-2-yl}-1H-pyrazol-1-yl)acetyl]amino}piperidine-2-carboxylate]: in experiment [2], the IC50 is 0.1 to 0.3 µM.

In the case of `Nc1ncc(-c2ccc(CN3CCNC(C(=O)OC4CCCC4)C3)nc2)nc1NCc1c(Cl)cccc1Cl` (stereo not shown) [Example 59, Cyclopentyl 4-[(5-{5-amino-6-[(2,6-dichlorobenzyl)amino]pyrazin-2-yl}pyridin-2-yl)methyl]piperazine-2-carboxylate], the IC50 in experiment [2] lay in the range of 0.1 to 0.3 µM.
